Data on two compounds can be found in patent US20080095720A1, “Skin Benefit Compositions with a Vanilloid Receptor Antagonist” (CONOPCO, INC., D/B/A UNILEVER, priority 2006, published 2008).

This assay has as its target T1, vanilloid receptor TRP-V1, VR-1 (Homo sapiens, UniProt Q8NER1).
T1 construct: endogenous in cells; host or cells: HaCaT keratinocytes
In words: Interleukin-1α production in HaCaT keratinocytes treated with capsaicin with or without capsazepine. Format: cell-based. The protocol:
Keratinocyte cell lines (HaCaT) were treated with about 1 μM capsaicin (an agonist of vanilloid receptor TRP-V1, VR-1). […] Antagonists of TRP-V1 are thereby expected to be a route to reduce inflammation in the skin when the same is subjected to an irritant.

T1 sequence (Q8NER1 whole entry): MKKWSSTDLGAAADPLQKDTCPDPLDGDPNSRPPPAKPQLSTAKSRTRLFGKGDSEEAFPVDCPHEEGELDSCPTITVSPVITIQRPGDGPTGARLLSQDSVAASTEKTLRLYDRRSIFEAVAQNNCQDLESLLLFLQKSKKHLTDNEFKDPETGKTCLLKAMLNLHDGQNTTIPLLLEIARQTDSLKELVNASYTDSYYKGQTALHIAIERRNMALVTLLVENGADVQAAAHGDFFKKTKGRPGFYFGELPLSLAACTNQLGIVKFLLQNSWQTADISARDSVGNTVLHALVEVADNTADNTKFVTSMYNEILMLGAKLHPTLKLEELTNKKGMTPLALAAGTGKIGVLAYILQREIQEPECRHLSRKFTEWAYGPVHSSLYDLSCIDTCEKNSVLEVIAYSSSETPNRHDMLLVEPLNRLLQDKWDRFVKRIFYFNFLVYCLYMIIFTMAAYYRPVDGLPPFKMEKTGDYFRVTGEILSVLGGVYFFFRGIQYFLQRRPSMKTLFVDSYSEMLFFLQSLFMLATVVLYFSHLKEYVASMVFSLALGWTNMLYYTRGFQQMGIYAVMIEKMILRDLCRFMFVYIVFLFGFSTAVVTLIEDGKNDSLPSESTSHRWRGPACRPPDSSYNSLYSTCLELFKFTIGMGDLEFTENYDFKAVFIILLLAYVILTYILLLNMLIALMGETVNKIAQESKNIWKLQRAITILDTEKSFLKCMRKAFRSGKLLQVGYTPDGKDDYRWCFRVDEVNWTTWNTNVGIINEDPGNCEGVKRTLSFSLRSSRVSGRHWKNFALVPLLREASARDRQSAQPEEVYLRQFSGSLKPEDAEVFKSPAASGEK

As for `Oc1cc2c(cc1O)CN(C(=S)NCCc1ccc(Cl)cc1)CCC2` [capsazepine], the “interleukin-1α increase in response to capsaicin” value (HaCaT keratinocytes, capsaicin (1 μM) in the presence of about 3 μM capsazepine) is “blocked the interleukin-1α increase”. In addition, the interleukin-1α levels entry (HaCaT keratinocytes, capsazepine alone) is on record as “no effect”.

`COc1cc(CNC(=O)CCCC/C=C/C(C)C)ccc1O` [capsaicin]: the “production of interleukin-1α” value (HaCaT keratinocyte cell lines, about 1 μM capsaicin, p<0.001) is recorded as “significant increase”.
